{"source": "paper PMC7170309", "about": "“Imidazopyridine-fused [1,3]diazepinones: modulations of positions 2 to 4 and their impacts on the anti-melanoma activity” (Journal of Enzyme Inhibition and Medicinal Chemistry, 2020)", "key": {"NCI-H522": {"tested_on": "NCI-H522", "assay": "NCI-60 SRB assay, NCI-H522 (NSCLC)", "assay_type": "cell-based, human", "settings": "10 µM, 48 h", "method": "(§1) Primary anticancer assay was performed on a panel of 60 human cancer cell lines derived from nine neoplastic diseases, in accordance with the protocol of the Drug Evaluation Branch, National Cancer Institute, Bethesda, Maryland, USA[22]. Cells were incubated with tested compounds at 10 µM for 48 h. The growth percentage was evaluated spectrophotometrically using a protein binding dye, SRB. Results for each tested compound were reported as the percent of growth of treated cells when compared to untreated control cells.\n(§2) To better compare the activity profile of these two series of compounds, compounds 5 and 8 were selected and then evaluated towards a panel of sixty cancer cell lines corresponding to nine different cancer types, i.e. leukaemia, melanoma, as well as lung, colon, central nervous system, ovarian, renal, prostate and breast cancers (NCI evaluation). Indeed, it is now well established that the growth inhibitory patterns of anticancer drugs against the NCI-60 cell line panel correlated well with their modes of action. For example, compounds that bind to tubulin have similar growth inhibition patterns regardless of which site on tubulin they bind[30]. […] Compounds were tested using the sulforhodamine B (SRB) assay that provides a direct cell density index. The amount of dye incorporated by the cells increases with the increase of the total protein biomass. Cells were incubated for 48 h with compounds at 10 µM concentration, then cell growth was evaluated spectrophotometrically and presented as the percent of untreated control cells. Values of the most sensitive cell lines were compared to those obtained with JMV5038 (Figure 4, for all data see SI)."}, "M14": {"tested_on": "M14", "assay": "NCI-60 SRB assay, M14 (Melanoma)", "assay_type": "cell-based, human", "settings": "10 µM, 48 h", "method": "as §1, §2"}, "MALME-3M": {"tested_on": "MALME-3M", "assay": "NCI-60 SRB assay, MALME-3M (Melanoma)", "assay_type": "cell-based, human", "settings": "10 µM, 48 h", "method": "as §1, §2"}, "HCC-2998": {"tested_on": "HCC-2998", "assay": "NCI-60 SRB assay, HCC-2998 (Colon Cancer)", "assay_type": "cell-based, human", "settings": "10 µM, 48 h", "method": "as §1, §2"}, "MDA-MB-231": {"tested_on": "MDA-MB-231", "assay": "NCI-60 SRB assay, MDA-MB-231 (Breast Cancer)", "assay_type": "cell-based, human", "settings": "10 µM, 48 h", "method": "as §1, §2"}, "ACHN": {"tested_on": "ACHN", "assay": "NCI-60 SRB assay, ACHN (Renal Cancer)", "assay_type": "cell-based, human", "settings": "10 µM, 48 h", "method": "as §1, §2"}, "OVCAR-3": {"tested_on": "OVCAR-3", "assay": "NCI-60 SRB assay, OVCAR-3 (Ovarian Cancer)", "assay_type": "cell-based, human", "settings": "10 µM, 48 h", "method": "as §1, §2"}, "A375 melanoma cells": {"tested_on": "A375 melanoma cells", "assay": "Neutral red uptake (NRU) viability assay, A375", "assay_type": "cell-based, human", "settings": "Homo sapiens, A-375, 72 h, mean ± SD of three experiments", "method": "Melanoma human cancer cell line (A375 and MDA-MB-435) were obtained from ATCC. The NIH-3T3 cell line was generously gifted by the ANSM (French National Agency for Medicines and Health Products Safety, Vendargues, France). Cells were cultured in Dulbecco’s Modified Eagle Medium (DMEM, Sigma Aldrich) supplemented with 10% heat-inactivated foetal calf serum (FCS, Gibco), 2 mM glutamax (Gibco), 100 IU/mL penicillin G sodium (Sigma Aldrich), 100 lU/mL streptomycin sulphate (Sigma Aldrich). The cells were allowed to grow at 37 °C in a fully humidified atmosphere containing 5% CO2.\nA viability assay was used to evaluate the cytotoxic activity on A375 and MDA-MB-435 melanoma cells as previously described. According to OCDE/ICCVAM guidance n°129, NRU assay was also used to evaluate the toxicity on the non-cancerous NIH-3T3 cells. Cells were seeded at a final concentration of 2000 cells/well (A375), 3000 cells/well (NIH-3T3) or 7500 cells/well (MDA-MB-435) in 96-well microtiter plates for 24 h. Then, cells were exposed to two negative controls (1% DMSO in culture medium (vehicle) and culture medium alone), or to different compounds freshly dissolved in DMSO, in a range of concentration from 0.01 to 40 µM (six wells per concentration). After 72 h of incubation, cells were stained with new medium containing 50 µg/mL of neutral red (3-amino-7-dimethylamino-2-methylphenazine hydrochloride, Sigma Aldrich) at 37 °C for 2 h. The neutral red medium solution was then removed and the wells were washed with PBS. Finally, 100 µL of solution containing ethanol, acetic acid and water (50/1/49 v/v/v respectively) were added into the wells and the absorbance was measured at 540 nm using the microplate reader 352 Multiscan MS (Labsystems). Cell survival rates were normalised to the absorbance values of untreated control cells. IC50 was obtained using a logistic regression model on Graphpad Prism 5.0 software. Results are given as the mean ± standard deviation (SD) of three independent experiments. Statistical analysis was performed using the Student’s t-test."}, "SW-620": {"tested_on": "SW-620", "assay": "NCI-60 SRB assay, SW-620 (Colon Cancer)", "assay_type": "cell-based, human", "settings": "10 µM, 48 h", "method": "as §1, §2"}, "SF-295": {"tested_on": "SF-295", "assay": "NCI-60 SRB assay, SF-295 (CNS Cancer)", "assay_type": "cell-based, human", "settings": "10 µM, 48 h", "method": "as §1, §2"}, "SNB-75": {"tested_on": "SNB-75", "assay": "NCI-60 SRB assay, SNB-75 (CNS Cancer)", "assay_type": "cell-based, human", "settings": "10 µM, 48 h", "method": "as §1, §2"}, "NCI/ADR-RES": {"tested_on": "NCI/ADR-RES", "assay": "NCI-60 SRB assay, NCI/ADR-RES (Ovarian Cancer)", "assay_type": "cell-based, human", "settings": "10 µM, 48 h", "method": "as §1, §2"}, "SK-MEL-28": {"tested_on": "SK-MEL-28", "assay": "NCI-60 SRB assay, SK-MEL-28 (Melanoma)", "assay_type": "cell-based, human", "settings": "10 µM, 48 h", "method": "as §1, §2"}, "KM12": {"tested_on": "KM12", "assay": "NCI-60 SRB assay, KM12 (Colon Cancer)", "assay_type": "cell-based, human", "settings": "10 µM, 48 h", "method": "as §1, §2"}, "SK-OV-3": {"tested_on": "SK-OV-3", "assay": "NCI-60 SRB assay, SK-OV-3 (Ovarian Cancer)", "assay_type": "cell-based, human", "settings": "10 µM, 48 h", "method": "as §1, §2"}, "A498": {"tested_on": "A498", "assay": "NCI-60 SRB assay, A498 (Renal Cancer)", "assay_type": "cell-based, human", "settings": "10 µM, 48 h", "method": "as §1, §2"}, "A549/ATCC": {"tested_on": "A549/ATCC", "assay": "NCI-60 SRB assay, A549/ATCC (NSCLC)", "assay_type": "cell-based, human", "settings": "10 µM, 48 h", "method": "as §1, §2"}, "MDA-MB-435": {"tested_on": "MDA-MB-435", "assay": "NCI-60 SRB assay, MDA-MB-435 (Melanoma)", "assay_type": "cell-based, human", "settings": "48 h", "method": "as §1, §2"}, "T-47D": {"tested_on": "T-47D", "assay": "NCI-60 SRB assay, T-47D (Breast Cancer)", "assay_type": "cell-based, human", "settings": "10 µM, 48 h", "method": "as §1, §2"}, "HT29": {"tested_on": "HT29", "assay": "NCI-60 SRB assay, HT29 (Colon Cancer)", "assay_type": "cell-based, human", "settings": "10 µM, 48 h", "method": "as §1, §2"}, "SF-539": {"tested_on": "SF-539", "assay": "NCI-60 SRB assay, SF-539 (CNS Cancer)", "assay_type": "cell-based, human", "settings": "10 µM, 48 h", "method": "as §1, §2"}, "CAKI-1": {"tested_on": "CAKI-1", "assay": "NCI-60 SRB assay, CAKI-1 (Renal Cancer)", "assay_type": "cell-based, human", "settings": "10 µM, 48 h", "method": "as §1, §2"}, "[1]": {"tested_on": "NCI-60 cancer cell line panel", "assay": "NCI-60 SRB assay, whole panel", "assay_type": "cell-based, human", "settings": "10 µM, 48 h", "method": "as §1, §2"}}}
{"smiles": "C[C@@H]1NC(c2ccc(N=[N+]=[N-])cc2)=Nc2nc3ccccn3c2C1=O", "note": "[Compound 5, (4S)-4-methyl-2-(4-azidophenyl)-3,4-dihydro-5H-pyrido[1’,2’:1,2]imidazo[4,5-d][1,3]diazepin-5-one]", "values": [{"measurement": "Mean G% - G%", "setting": "NCI-H522", "value": "13,32%"}, {"measurement": "G%", "setting": "NCI-H522; growth vs untreated control", "value": "71,94%"}, {"measurement": "Mean G% - G%", "setting": "M14", "value": "3,28%"}, {"measurement": "G%", "setting": "M14; growth vs untreated control", "value": "81,98%"}, {"measurement": "Mean G% - G%", "setting": "MALME-3M", "value": "3,28%"}, {"measurement": "G%", "setting": "MALME-3M; growth vs untreated control", "value": "81,98%"}, {"measurement": "Mean G% - G%", "setting": "HCC-2998", "value": "3,82%"}, {"measurement": "G%", "setting": "HCC-2998; growth vs untreated control", "value": "81,44%"}, {"measurement": "Mean G% - G%", "setting": "MDA-MB-231", "value": "4,91%"}, {"measurement": "G%", "setting": "MDA-MB-231; growth vs untreated control", "value": "80,35%"}, {"measurement": "Mean G% - G%", "setting": "ACHN", "value": "0,49%"}, {"measurement": "G%", "setting": "ACHN; growth vs untreated control", "value": "84,77%"}, {"measurement": "Mean G% - G%", "setting": "OVCAR-3", "value": "-12,28%"}, {"measurement": "G%", "setting": "OVCAR-3; growth vs untreated control", "value": "97,54%"}, {"measurement": "IC50", "setting": "A375 melanoma cells", "value": "7.13 ± 0.51", "unit": "µM"}, {"measurement": "Mean G% - G%", "setting": "SW-620", "value": "13,36%"}, {"measurement": "G%", "setting": "SW-620; growth vs untreated control", "value": "71,90%"}, {"measurement": "Mean G% - G%", "setting": "SF-295", "value": "-8,18%"}, {"measurement": "G%", "setting": "SF-295; growth vs untreated control", "value": "93,44%"}, {"measurement": "Mean G% - G%", "setting": "SNB-75", "value": "14,91%"}, {"measurement": "G%", "setting": "SNB-75; growth vs untreated control", "value": "70,35%"}, {"measurement": "Mean G% - G%", "setting": "NCI/ADR-RES", "value": "11,92%"}, {"measurement": "G%", "setting": "NCI/ADR-RES; growth vs untreated control", "value": "73,34%"}, {"measurement": "Mean G% - G%", "setting": "SK-MEL-28", "value": "-9,13%"}, {"measurement": "G%", "setting": "SK-MEL-28; growth vs untreated control", "value": "94,39%"}, {"measurement": "Mean G% - G%", "setting": "KM12", "value": "27,28%"}, {"measurement": "G%", "setting": "KM12; growth vs untreated control", "value": "57,98%"}, {"measurement": "Mean G% - G%", "setting": "SK-OV-3", "value": "-1,19%"}, {"measurement": "G%", "setting": "SK-OV-3; growth vs untreated control", "value": "86,45%"}, {"measurement": "melting point", "value": "235 to 236 °C (dec.)"}, {"measurement": "Mean G% - G%", "setting": "A498", "value": "-14,16%"}, {"measurement": "G%", "setting": "A498; growth vs untreated control", "value": "99,42%"}, {"measurement": "Mean G% - G%", "setting": "A549/ATCC", "value": "-3,81%"}, {"measurement": "G%", "setting": "A549/ATCC; growth vs untreated control", "value": "89,07%"}, {"measurement": "inhibition at 10 µM", "setting": "MDA-MB-435; Homo sapiens, MDA-MB-435, NCI-60 SRB, read-out: growth inhibition percentage", "value": 87, "unit": "%"}, {"measurement": "Mean G% - G%", "setting": "MDA-MB-435; MDA-MB-435, 10 µM, SRB", "value": "72,64%"}, {"measurement": "G%", "setting": "MDA-MB-435; MDA-MB-435, 10 µM, SRB, growth vs untreated control", "value": "12,62%"}, {"measurement": "Mean G% - G%", "setting": "T-47D", "value": "8,29%"}, {"measurement": "G%", "setting": "T-47D; growth vs untreated control", "value": "76,97%"}, {"measurement": "Mean G% - G%", "setting": "HT29", "value": "10,46%"}, {"measurement": "G%", "setting": "HT29; growth vs untreated control", "value": "74,80%"}, {"measurement": "Mean G% - G%", "setting": "SF-539", "value": "-2,57%"}, {"measurement": "G%", "setting": "SF-539; growth vs untreated control", "value": "87,83%"}, {"measurement": "Mean G% - G%", "setting": "CAKI-1", "value": "10,49%"}, {"measurement": "G%", "setting": "CAKI-1; growth vs untreated control", "value": "74,77%"}, {"measurement": "Mean G% (mean growth over the panel)", "setting": "[1]", "value": "85,26%"}]}
